In patent US20240335486A1, “COMPOSITION FOR REARING ORGANISM BELONGING TO ORDER DECAPODA AND COMPOSITION FOR PREVENTING OR TREATING INFECTION IN DECAPODS” (SUMITOMO CHEMICAL COMPANY, LIMITED, priority 2021, published 2024):

Columns and labels:
Experiment in all cases: Antibacterial activity of lactic acid cell culture products (plate culture, filter paper disk)
Type in all cases: cell-based
[1] = system: V. nigripulchritudo TUMSAT-OK1 strain; conditions: Vibrio nigripulchritudo on Marine agar; disk with 20 μL culture filtrate (ampicillin 100 μg/mL); 25° C., 24 hours; read-out: diameter of the growth-inhibitory zone
Experimental: (§1) Examination was performed on whether the cell culture products of NITE BP-03199, NITE BP-03200, and NITE BP-03201 have antibacterial activity to Vibrio bacteria. The V. parahaemolyticus TUMSAT-D6 strain (AHPND strain), V. nigripulchritudo TUMSAT-OK1 strain, and V. pengeicida TUMSAT-OG1 strain were used as Vibrio bacteria.
(§2) With reference to FIG. 4, the experimental method will be described. With a bacteria spreader, 100 μL of a bacterial solution 11 of a Vibrio bacterium (approximately 10^8 cfu/mL) was smeared on agar medium 12. The agar medium used was Marine agar (Difco). A filter paper disk 15 was impregnated with 20 μL of a lactic acid bacterial culture filtrate 13, and placed on the agar medium with a Vibrio bacterium smeared thereon. The lactic acid bacterial culture filtrate (cell culture product) was a solution obtained through a process that any lactic acid bacterium of NITE BP-03199, NITE BP-03200, and NITE BP-03201 was cultured with MRS Broth at a temperature of 30° C. and the culture supernatant was filtered through a filter having a pore size of 0.22 μm. The turbidity of each lactic acid bacterial culture solution at a wavelength of 600 nm was approximately 10 OD. The agar medium with filter paper disk 15 placed thereon was subjected to culture at 25° C. for 24 hours, and the diameter (mm) of a growth-inhibitory zone 14 was measured. Each numerical value shown in Table 7 indicates the diameter (mm) of the growth-inhibitory zone. A filter paper disk was impregnated with medium for lactic acid bacteria (MRS Broth) as a negative control, and another one was impregnated with the antibiotic ampicillin (100 μg/mL) as a positive control.

[2] = system: V. parahaemolyticus TUMSAT-D6 strain (AHPND strain); conditions: Vibrio parahaemolyticus on Marine agar; disk with 20 μL culture filtrate (ampicillin 100 μg/mL); 25° C., 24 hours; read-out: diameter of the growth-inhibitory zone
Experimental: as §1, §2

[3] = system: V. pengeicida TUMSAT-OG1 strain; conditions: Vibrio penaeicida on Marine agar; disk with 20 μL culture filtrate (ampicillin 100 μg/mL); 25° C., 24 hours; read-out: diameter of the growth-inhibitory zone
Experimental: as §1, §2

Which results are given for CC1(C)S[C@@H]2[C@H](NC(=O)[C@H](N)c3ccccc3)C(=O)N2[C@H]1C(=O)O [Ampicillin, ampicillin]?
zone of inhibition at 100 µg/mL [1]: 29 mm; zone of inhibition at 100 µg/mL [2]: 28 mm; zone of inhibition at 100 µg/mL [3]: 37 mm
